Data published in US9334269B2, “Carboxamides as inhibitors of voltage-gated sodium channels” (AMGEN INC., priority 2010, dated 2016).

Each compound was assayed against T1, human Nav1.7 (hNav1.7) (Homo sapiens, UniProt Q15858) (assay: hNav1.7 whole-cell patch-clamp electrophysiology (automated PatchXpress 7000A or manual) in stably expressing 293 cells). Settings: average IC50.
T1 construct: expressed in transfected cells
Assay type: cell-based
Procedure, shortened: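 Stably transfected 293 cells lacking endogenous sodium channels; peak current evoked by depolarizing pulses during increasing compound concentrations, automated at ~20% fractional inactivation, or manually at −140 mV (resting) and ~20% inactivation. Block taken at steady state, corrected for rundown; IC50 by Hill fit.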

T1 sequence (Q15858 whole entry): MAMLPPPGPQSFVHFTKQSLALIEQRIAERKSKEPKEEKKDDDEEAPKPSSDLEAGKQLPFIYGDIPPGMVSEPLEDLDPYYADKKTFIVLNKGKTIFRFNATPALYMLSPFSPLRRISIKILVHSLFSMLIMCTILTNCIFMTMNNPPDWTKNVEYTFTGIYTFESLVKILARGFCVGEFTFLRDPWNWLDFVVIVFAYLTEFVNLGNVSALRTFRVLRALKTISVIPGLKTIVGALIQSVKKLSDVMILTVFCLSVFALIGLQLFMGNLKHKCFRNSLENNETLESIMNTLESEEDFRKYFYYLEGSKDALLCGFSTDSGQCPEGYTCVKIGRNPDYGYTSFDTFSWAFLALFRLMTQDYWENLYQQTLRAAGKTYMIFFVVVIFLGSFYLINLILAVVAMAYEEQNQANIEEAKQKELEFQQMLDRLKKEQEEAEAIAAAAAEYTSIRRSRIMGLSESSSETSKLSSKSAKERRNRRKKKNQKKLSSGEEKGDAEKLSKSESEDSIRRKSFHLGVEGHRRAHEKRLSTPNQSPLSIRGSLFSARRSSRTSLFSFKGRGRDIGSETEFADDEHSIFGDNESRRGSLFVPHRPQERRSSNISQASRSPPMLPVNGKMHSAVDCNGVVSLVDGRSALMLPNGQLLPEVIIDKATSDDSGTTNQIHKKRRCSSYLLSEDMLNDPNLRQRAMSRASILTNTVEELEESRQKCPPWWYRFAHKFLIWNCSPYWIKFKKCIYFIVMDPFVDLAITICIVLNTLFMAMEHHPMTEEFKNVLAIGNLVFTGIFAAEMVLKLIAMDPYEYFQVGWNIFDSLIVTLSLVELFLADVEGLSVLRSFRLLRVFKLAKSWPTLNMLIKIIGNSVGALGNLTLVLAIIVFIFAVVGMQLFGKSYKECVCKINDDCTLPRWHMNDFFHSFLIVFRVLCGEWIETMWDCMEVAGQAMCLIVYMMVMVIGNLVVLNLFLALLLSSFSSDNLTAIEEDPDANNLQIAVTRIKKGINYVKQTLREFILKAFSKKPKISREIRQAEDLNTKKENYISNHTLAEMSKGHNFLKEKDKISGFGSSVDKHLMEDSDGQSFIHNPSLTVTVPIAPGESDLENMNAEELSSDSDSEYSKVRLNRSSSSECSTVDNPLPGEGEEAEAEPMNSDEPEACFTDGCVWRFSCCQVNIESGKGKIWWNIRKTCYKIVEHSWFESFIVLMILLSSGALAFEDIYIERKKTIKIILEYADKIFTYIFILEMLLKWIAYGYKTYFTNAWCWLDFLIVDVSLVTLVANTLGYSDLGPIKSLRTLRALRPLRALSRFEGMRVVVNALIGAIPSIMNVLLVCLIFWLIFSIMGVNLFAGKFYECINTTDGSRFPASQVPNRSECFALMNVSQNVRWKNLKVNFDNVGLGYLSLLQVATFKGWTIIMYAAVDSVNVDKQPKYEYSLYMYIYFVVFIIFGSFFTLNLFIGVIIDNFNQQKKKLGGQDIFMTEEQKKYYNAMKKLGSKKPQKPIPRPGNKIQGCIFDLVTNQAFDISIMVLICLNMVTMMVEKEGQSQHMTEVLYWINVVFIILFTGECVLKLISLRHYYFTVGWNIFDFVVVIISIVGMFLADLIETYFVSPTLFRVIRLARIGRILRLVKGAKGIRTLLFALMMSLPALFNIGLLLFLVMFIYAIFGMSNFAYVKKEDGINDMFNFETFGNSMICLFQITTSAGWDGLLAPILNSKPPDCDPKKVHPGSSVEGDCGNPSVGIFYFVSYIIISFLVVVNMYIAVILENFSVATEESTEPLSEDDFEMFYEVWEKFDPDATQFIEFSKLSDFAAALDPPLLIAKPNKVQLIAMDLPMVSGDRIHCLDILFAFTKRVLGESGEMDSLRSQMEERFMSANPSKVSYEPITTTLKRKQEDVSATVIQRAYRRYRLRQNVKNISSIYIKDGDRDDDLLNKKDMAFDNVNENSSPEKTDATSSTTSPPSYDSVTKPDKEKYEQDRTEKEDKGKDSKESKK

`CNC(=O)c1cccc(Nc2ncnc(N3CC(C)(Oc4ccccc4)C3)n2)c1` [Example 263] and `CNC(=O)c1cccc(Nc2ncnc(N3CCc4oc(-c5ccccc5)cc4C3)n2)c1` [Example 265] are within 1.5-fold of each other in IC50: 18.1 µM for the first, 19.2 µM for the second.

`CNC(=O)c1cccc(Nc2ncnc(N3CC(Oc4ccc(C5CCCC5)cc4)C3)n2)c1` [Example 264] showed an IC50 of 18.9 µM.

Same assay, conditions: average IC50, human Nav1.7

Compared with `CNC(=O)c1c(F)ccc(Nc2ncnc(N3CC(Oc4ccc(Cl)cc4)C3)n2)c1F` [Example 183], `CNC(=O)c1cc(Nc2ncnc(N3CC(Oc4ccc(Cl)cc4)C3)n2)ccc1O` [Example 219] is 1.7-fold higher in IC50: 5.19 µM for the first, 8.82 µM for the second.

Compared with `CNC(=O)c1cccc(Nc2ncnc(N3CC(c4ccc(Cl)cc4)C3)n2)c1` [Example 184], `CNC(=O)c1cccc(Nc2ncnc(N3CCC(c4ccc(Cl)cc4)CC3)n2)c1` [Example 249] is 2.5-fold higher in IC50: 5.23 µM for the first, 13.1 µM for the second. The first is the more potent here.

Going from `CNC(=O)c1cccc(Nc2ncnc(N3CCc4cc(C)ccc4C3)n2)c1` [Example 185] to `CNC(=O)c1cccc(Nc2ncnc(N3CCc4cc(OC)ccc4C3)n2)c1` [Example 222], the IC50 rises from 5.28 µM to 8.96 µM (1.7-fold). The first is the more potent here.

Compared with `CNC(=O)c1cccc(Nc2ncnc(N3CC(Oc4cc(F)cc(F)c4)C3)n2)c1` [Example 187], `CNC(=O)c1cccc(Nc2ncnc(N3CC(Oc4cc(Cl)cc(Cl)c4)C3)n2)c1` [Example 224] is 1.7-fold higher in IC50: 5.43 µM for the first, 9.29 µM for the second.

Compared with `CNC(=O)c1cccc(Nc2ncnc(N3CC(COc4cccc(C(F)(F)F)c4)C3)n2)c1` [Example 188], `CNC(=O)c1cccc(Nc2ncnc(N3CC(COc4cccc(F)c4)C3)n2)c1` [Example 242] is 2.1-fold higher in IC50: 5.44 µM for the first, 11.2 µM for the second.

Compared with `CNC(=O)c1cccc(Nc2ncnc(N3CC(COCc4ccc(C(F)(F)F)cc4)C3)n2)c1` [Example 189], `CNC(=O)c1cccc(Nc2ncnc(N3CC(COCc4ccc(Cl)cc4)C3)n2)c1` [Example 241] is 2-fold higher in IC50: 5.56 µM for the first, 11.1 µM for the second.

Compared with `CNC(=O)c1cccc(Nc2ncnc(N3CCC(n4cc(-c5ccccc5Cl)cn4)CC3)n2)c1` [Example 190], `CNC(=O)c1cccc(Nc2ncnc(N3CCC(Cc4ccccc4)CC3)n2)c1` [Example 230] is 1.7-fold higher in IC50: 5.58 µM for the first, 9.5 µM for the second.

`CNC(=O)c1cccc(Nc2ncnc(N3CCN(Cc4ccccc4OC(F)(F)F)CC3)n2)c1` [Example 191] and `CNC(=O)c1cccc(Nc2ncnc(N3CCC(Oc4ccccc4OC(F)(F)F)CC3)n2)c1` [Example 209] are within 1.5-fold of each other in IC50: 5.6 µM for the first, 8.15 µM for the second.

`CNC(=O)c1cccc(Nc2ncnc(N3CC(Oc4ccccc4F)C3)n2)c1` [Example 192] and `CNC(=O)c1cccc(Nc2ncnc(N3CC(Oc4ccccc4OC)C3)n2)c1` [Example 204] are within 1.5-fold of each other in IC50: 5.6 µM for the first, 7.42 µM for the second.

Going from `CNC(=O)c1cccc(Nc2ncnc(N3CCC(Oc4ccc(F)c(OC(F)(F)F)c4)CC3)n2)c1` [Example 193] to `CNC(=O)c1cccc(Nc2ncnc(N3CCC(Oc4ccccc4F)CC3)n2)c1` [Example 238], the IC50 rises from 5.79 µM to 10.8 µM (1.9-fold). The first is the more potent here.

Going from `CNC(=O)c1cccc(Nc2ncnc(N3CC(Oc4ccc(C(F)(F)F)cc4Cl)C3)n2)c1` [Example 194] to `CNC(=O)c1cccc(Nc2ncnc(N3CC(Oc4cccc(C(F)(F)F)c4F)C3)n2)c1` [Example 256], the IC50 rises from 5.97 µM to 16.7 µM (2.8-fold). The first is the more potent here.

`CNC(=O)c1cccc(Nc2ncnc(N3CCN(c4ccc(C#N)cc4)CC3)n2)c1` [Example 195] and `CNC(=O)c1cccc(Nc2ncnc(N3CCN(c4ccc(F)cc4)CC3)n2)c1` [Example 198] are within 1.5-fold of each other in IC50: 6.03 µM for the first, 6.83 µM for the second.

Compared with `CNC(=O)c1cccc(Nc2ncnc(N3CCC(Cc4ccc(F)cc4)CC3)n2)c1` [Example 196], `CNC(=O)c1cccc(Nc2ncnc(N3CCC(C#N)(c4ccc(F)cc4)CC3)n2)c1` [Example 245] is 2-fold higher in IC50: 6.4 µM for the first, 12.5 µM for the second. The first is the more potent here.

`CNC(=O)c1cccc(Nc2ccnc(N3CC(COc4ccc(Cl)cc4)C3)n2)c1` [Example 197] and `CNC(=O)c1cccc(Nc2ncnc(N3CC(COc4ccc(OC)cc4)C3)n2)c1` [Example 223] are within 1.5-fold of each other in IC50: 6.8 µM for the first, 9.19 µM for the second.

`CNC(=O)c1cccc(Nc2ncnc(N3CC(Oc4cccc(-c5ccccc5)c4)C3)n2)c1` [Example 199] and `CNC(=O)c1cccc(Nc2ncnc(N3CC(Oc4ccccc4-c4ccccc4)C3)n2)c1` [Example 217] are within 1.5-fold of each other in IC50: 7.02 µM for the first, 8.66 µM for the second.

First: NC(=O)c1cccc(Nc2ncnc(N3CCC(OCc4ccc(OC(F)(F)F)cc4)CC3)n2)c1 [Example 200]
Second: CN(C)C(=O)c1cccc(Nc2ncnc(N3CCC(OCc4ccc(OC(F)(F)F)cc4)CC3)n2)c1 [Example 240]
The IC50 of the first is 1.6-fold lower: 7.03 µM for the first, 11.1 µM for the second.

Going from `CNC(=O)c1cccc(Nc2ncnc(N3CC(COc4cccc(Cl)c4)C3)n2)c1` [Example 201] to `CNC(=O)c1cccc(Nc2ncnc(N3CC(COc4cccc(OC)c4)C3)n2)c1` [Example 244], the IC50 rises from 7.03 µM to 12 µM (1.7-fold). The first is the more potent here.

`CNC(=O)c1cccc(Nc2ncnc(N3CCN(c4ccc(OC(F)(F)F)cc4)CC3)n2)c1C` [Example 202] and `Cc1ccc(N2CCN(c3ncnc(Nc4ccc(Cl)c(C(N)=O)c4)n3)CC2)cc1C` [Example 227] are within 1.5-fold of each other in IC50: 7.12 µM for the first, 9.36 µM for the second.

`CNC(=O)c1cccc(Nc2ncnc(N3CCCN(Cc4ccccc4)CC3)n2)c1` [Example 203] and `CNC(=O)c1cccc(Nc2ncnc(N3CCC(OCc4ccccc4)CC3)n2)c1` [Example 206] are within 1.5-fold of each other in IC50: 7.42 µM for the first, 7.93 µM for the second.

`O=C(NC1CC1)c1cccc(Nc2ncnc(N3CC(Oc4ccc(F)cc4)C3)n2)c1` [Example 205] and `NC(=O)c1cccc(Nc2ncnc(N3CC(Oc4ccc(F)cc4)C3)n2)c1` [Example 237] are within 1.5-fold of each other in IC50: 7.42 µM for the first, 10.7 µM for the second.

`CNC(=O)c1cccc(Nc2ncnc(N3CC(Oc4ccc(CC#N)cc4)C3)n2)c1` [Example 207] and `CNC(=O)c1cccc(Nc2ncnc(N3CC(Oc4ccc(C#N)cc4)C3)n2)c1` [Example 210] are within 1.5-fold of each other in IC50: 7.98 µM for the first, 8.24 µM for the second.

Compared with `CNC(=O)c1cccc(Nc2ncnc(N3CC(COc4ccc(Cl)c(C(F)(F)F)c4)C3)n2)c1` [Example 208], `CNC(=O)c1cccc(Nc2ncnc(N3CC(COc4ccccc4Cl)C3)n2)c1` [Example 247] is 1.6-fold higher in IC50: 8.11 µM for the first, 12.8 µM for the second.

`CNC(=O)c1cccc(Nc2ncnc(N3CCC3COc3ccc(Cl)cc3)n2)c1` (stereo not shown) [Example 211] and `CNC(=O)c1cccc(Nc2ncnc(NCCOc3ccc(Cl)cc3)n2)c1` [Example 236] are within 1.5-fold of each other in IC50: 8.3 µM for the first, 10.4 µM for the second.

Going from `CNC(=O)c1cccc(Nc2ncnc(N3CCCC(Oc4ccccc4Cl)C3)n2)c1` (stereo not shown) [Example 212] to `CNC(=O)c1cccc(Nc2ncnc(N3CC(COc4ccccc4F)C3)n2)c1` [Example 251], the IC50 rises from 8.31 µM to 13.8 µM (1.7-fold). The first is the more potent here.

Compared with `CC(C)(C)NC(=O)c1cccc(Nc2ncnc(N3CC(Oc4ccc(F)cc4)C3)n2)c1` [Example 213], `CNC(=O)c1cc(Cl)cc(Nc2ncnc(N3CC(Oc4ccc(F)cc4)C3)n2)c1` [Example 262] is 2.1-fold higher in IC50: 8.39 µM for the first, 17.8 µM for the second. The first is the more potent here.

`CNC(=O)c1cccc(Nc2ncnc(N3CC(Oc4ccc(OCc5ccccc5)cc4)C3)n2)c1` [Example 214] and `CNC(=O)c1cccc(Nc2ncnc(N3CC(COc4ccc5ccccc5c4)C3)n2)c1` [Example 234] are within 1.5-fold of each other in IC50: 8.47 µM for the first, 10 µM for the second.

Compared with `CNC(=O)c1cccc(Nc2ncnc(N3CCC(c4ccc(C#N)c(C(F)(F)F)c4)CC3)n2)c1` [Example 215], `CNC(=O)c1cccc(Nc2ncnc(N3CCC(c4ccc(C#N)c(OC(F)(F)F)c4)CC3)n2)c1` [Example 248] is 1.5-fold higher in IC50: 8.59 µM for the first, 12.9 µM for the second.

`CNC(=O)c1cccc(Nc2ncnc(N3CCc4cc(C(F)(F)F)ccc4C3)n2)c1` [Example 216] and `CNC(=O)c1cccc(Nc2ncnc(N3CCc4ccccc4C3)n2)c1` [Example 243] are within 1.5-fold of each other in IC50: 8.6 µM for the first, 11.5 µM for the second.

Compared with `CNC(=O)c1cccc(Nc2cc(N3CC(Oc4ccc(F)cc4)C3)ncn2)c1` [Example 218], `CNC(=O)c1cccc(Nc2ncnc(N3CC(COc4ccc(C#N)cc4)C3)n2)c1` [Example 258] is 1.9-fold higher in IC50: 8.68 µM for the first, 16.9 µM for the second.

`CNC(=O)c1cccc(Nc2ncnc(N3CCc4ccc(OC)cc4C3)n2)c1` [Example 220] and `CNC(=O)c1cccc(Nc2ncnc(N3CCc4cc(OCCOC)ccc4C3)n2)c1` [Example 233] are within 1.5-fold of each other in IC50: 8.85 µM for the first, 9.87 µM for the second.

`NC(=O)c1cccc(Nc2ncnc(N3CCc4cc(Br)ccc4C3)n2)c1` [Example 221] and `NC(=O)c1cccc(Nc2ncnc(N3CCc4ccccc4C3)n2)c1` [Example 235] are within 1.5-fold of each other in IC50: 8.9 µM for the first, 10.3 µM for the second.

Compared with `CNC(=O)c1cccc(Nc2ncnc(N3CCc4c(F)cccc4C3)n2)c1` [Example 225], `CNC(=O)c1cccc(Nc2ncnc(N3CCc4c(cccc4OCCOC)C3)n2)c1` [Example 252] is 1.6-fold higher in IC50: 9.31 µM for the first, 15 µM for the second. The first is the more potent here.

`CNC(=O)c1cccc(Nc2ncnc(N3CC(Oc4ccc(F)c(F)c4F)C3)n2)c1` [Example 226] and `CNC(=O)c1cccc(Nc2ncnc(N3CCC(OCc4ccc(F)c(F)c4)CC3)n2)c1` [Example 228] are within 1.5-fold of each other in IC50: 9.35 µM for the first, 9.42 µM for the second.

First: CNC(=O)c1cccc(Nc2ncnc(N3CC(COc4ccccc4OC(F)(F)F)C3)n2)c1 [Example 229]
Second: CNC(=O)c1cccc(Nc2ncnc(N3CC(COc4cccc5ccccc45)C3)n2)c1 [Example 253]
The IC50 of the first is 1.6-fold lower: 9.44 µM for the first, 15.2 µM for the second. The first is the more potent here.

`CNC(=O)c1cccc(Nc2ncnc(N3CCC(c4nc(C(C)C)no4)CC3)n2)c1` [Example 231] and `CCCc1noc(C2CCN(c3ncnc(Nc4cccc(C(=O)NC)c4)n3)CC2)n1` [Example 246] are within 1.5-fold of each other in IC50: 9.66 µM for the first, 12.7 µM for the second.

Compared with `CNC(=O)c1cccc(Nc2ncnc(NCCCc3ccc(Cl)cc3)n2)c1` [Example 232], `CNC(=O)c1cccc(Nc2ncnc(NCCCOc3cccc(F)c3)n2)c1` [Example 260] is 1.8-fold higher in IC50: 9.84 µM for the first, 17.6 µM for the second.

Going from `CNC(=O)c1cccc(Nc2ncnc(N3CCC(OCc4cccc(C(F)(F)F)c4)CC3)n2)c1` [Example 239] to `CNC(=O)c1cccc(Nc2ncnc(N3CCC(Nc4ccccc4)CC3)n2)c1` [Example 257], the IC50 rises from 10.8 µM to 16.9 µM (1.6-fold).

`CNC(=O)c1cccc(Nc2ncnc(N3CCC(Sc4ccc(C)cc4)CC3)n2)c1` [Example 250] and `CNC(=O)c1cccc(Nc2ncnc(N3CCC4(CC3)OCc3ccccc34)n2)c1` [Example 259] are within 1.5-fold of each other in IC50: 13.1 µM for the first, 17.1 µM for the second.

`CNC(=O)c1cccc(Nc2ncnc(NCc3nc(-c4ccccc4)no3)n2)c1` [Example 254] and `CNC(=O)c1cccc(Nc2ncnc(N3CC(COc4ccc(Cl)c5cccnc45)C3)n2)c1` [Example 255] are within 1.5-fold of each other in IC50: 15.7 µM for the first, 16 µM for the second.

`CNC(=O)c1cccc(Nc2ncnc(N3CCC(COCC4CC4)CC3)n2)c1` [Example 261] gave an IC50 of 17.7 µM.
